# Results reported in PubChem BioAssay (NCI).
#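 Following 48 hours of exposure in 96-well plates, responses at five concentrations were used to interpolate endpoints linearly. TGI: concentration producing complete growth inhibition.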
# How the values were obtained:
# Assay in all cases: NCI-60 cell line screen, 48 h
# A498 renal = tested on: A498 renal
# A549 NSCLC = tested on: A549 NSCLC
# ACHN renal = tested on: ACHN renal
# BT-549 breast = tested on: BT-549 breast
# CAKI-1 renal = tested on: CAKI-1 renal
# CCRF-CEM leukemia = tested on: CCRF-CEM leukemia
# COLO 205 colon = tested on: COLO 205 colon
# DU-145 prostate = tested on: DU-145 prostate
# EKVX NSCLC = tested on: EKVX NSCLC
# HCC-2998 colon = tested on: HCC-2998 colon
# HCT-15 colon = tested on: HCT-15 colon
# HOP-62 NSCLC = tested on: HOP-62 NSCLC
# HOP-92 NSCLC = tested on: HOP-92 NSCLC
# HS 578T breast = tested on: HS 578T breast
# HT29 colon = tested on: HT29 colon
# IGROV1 ovarian = tested on: IGROV1 ovarian
# K-562 leukemia = tested on: K-562 leukemia
# KM12 colon = tested on: KM12 colon
# M14 melanoma = tested on: M14 melanoma
# MALME-3M melanoma = tested on: MALME-3M melanoma
# MCF7 breast = tested on: MCF7 breast
# MDA-MB-231 breast = tested on: MDA-MB-231 breast
# MDA-MB-435 = tested on: MDA-MB-435
# MDA-N = tested on: MDA-N
# MOLT-4 leukemia = tested on: MOLT-4 leukemia
# NCI-H226 lung = tested on: NCI-H226 lung
# NCI-H23 lung = tested on: NCI-H23 lung
# NCI-H460 lung = tested on: NCI-H460 lung
# NCI-H522 lung = tested on: NCI-H522 lung
# NCI/ADR-RES ovarian = tested on: NCI/ADR-RES ovarian
# OVCAR-3 ovarian = tested on: OVCAR-3 ovarian
# OVCAR-4 ovarian = tested on: OVCAR-4 ovarian
# OVCAR-8 ovarian = tested on: OVCAR-8 ovarian
# PC-3 prostate = tested on: PC-3 prostate
# RXF 393 renal = tested on: RXF 393 renal
# SF-268 CNS = tested on: SF-268 CNS
# SF-295 CNS = tested on: SF-295 CNS
# SF-539 CNS = tested on: SF-539 CNS
# SK-MEL-28 melanoma = tested on: SK-MEL-28 melanoma
# SK-MEL-5 melanoma = tested on: SK-MEL-5 melanoma
# SK-OV-3 ovarian = tested on: SK-OV-3 ovarian
# SN12C renal = tested on: SN12C renal
# SNB-19 CNS = tested on: SNB-19 CNS
# SNB-75 CNS = tested on: SNB-75 CNS
# SR leukemia = tested on: SR leukemia
# SW-620 colon = tested on: SW-620 colon
# T-47D breast = tested on: T-47D breast
# TK-10 renal = tested on: TK-10 renal
# U251 CNS = tested on: U251 CNS
# UACC-257 melanoma = tested on: UACC-257 melanoma
# UACC-62 melanoma = tested on: UACC-62 melanoma
# UO-31 renal = tested on: UO-31 renal
# 786-0 renal = tested on: 786-0 renal
# HCT-116 colon = tested on: HCT-116 colon
# HL-60(TB) leukemia = tested on: HL-60(TB) leukemia
# LOX IMVI melanoma = tested on: LOX IMVI melanoma
# OVCAR-5 ovarian = tested on: OVCAR-5 ovarian
# RPMI-8226 leukemia = tested on: RPMI-8226 leukemia
# SK-MEL-2 melanoma = tested on: SK-MEL-2 melanoma
smiles,measurement,setting,value
O=c1[nH]c2ccccc2c2oc3ccccc3c12,TGI,A498 renal,> 100 µM
same,TGI,A549 NSCLC,> 100 µM
same,TGI,ACHN renal,> 100 µM
same,TGI,BT-549 breast,> 100 µM
same,TGI,CAKI-1 renal,> 100 µM
same,TGI,CCRF-CEM leukemia,> 100 µM
same,TGI,COLO 205 colon,> 100 µM
same,TGI,DU-145 prostate,> 100 µM
same,TGI,EKVX NSCLC,> 100 µM
same,TGI,HCC-2998 colon,> 100 µM
same,TGI,HCT-15 colon,> 100 µM
same,TGI,HOP-62 NSCLC,> 100 µM
same,TGI,HOP-92 NSCLC,> 100 µM
same,TGI,HS 578T breast,> 100 µM
same,TGI,HT29 colon,> 100 µM
same,TGI,IGROV1 ovarian,> 100 µM
same,TGI,K-562 leukemia,> 100 µM
same,TGI,KM12 colon,> 100 µM
same,TGI,M14 melanoma,> 100 µM
same,TGI,MALME-3M melanoma,> 100 µM
same,TGI,MCF7 breast,> 100 µM
same,TGI,MDA-MB-231 breast,> 100 µM
same,TGI,MDA-MB-435,> 100 µM
same,TGI,MDA-N,> 100 µM
same,TGI,MOLT-4 leukemia,> 100 µM
same,TGI,NCI-H226 lung,> 100 µM
same,TGI,NCI-H23 lung,> 100 µM
same,TGI,NCI-H460 lung,> 100 µM
same,TGI,NCI-H522 lung,> 100 µM
same,TGI,NCI/ADR-RES ovarian,> 100 µM
same,TGI,OVCAR-3 ovarian,> 100 µM
same,TGI,OVCAR-4 ovarian,> 100 µM
same,TGI,OVCAR-8 ovarian,> 100 µM
same,TGI,PC-3 prostate,> 100 µM
same,TGI,RXF 393 renal,> 100 µM
same,TGI,SF-268 CNS,> 100 µM
same,TGI,SF-295 CNS,> 100 µM
same,TGI,SF-539 CNS,> 100 µM
same,TGI,SK-MEL-28 melanoma,> 100 µM
same,TGI,SK-MEL-5 melanoma,> 100 µM
same,TGI,SK-OV-3 ovarian,> 100 µM
same,TGI,SN12C renal,> 100 µM
same,TGI,SNB-19 CNS,> 100 µM
same,TGI,SNB-75 CNS,32.6 µM
same,TGI,SR leukemia,> 100 µM
same,TGI,SW-620 colon,> 100 µM
same,TGI,T-47D breast,> 100 µM
same,TGI,TK-10 renal,> 100 µM
same,TGI,U251 CNS,> 100 µM
same,TGI,UACC-257 melanoma,> 100 µM
same,TGI,UACC-62 melanoma,> 100 µM
same,TGI,UO-31 renal,> 100 µM
N#CCc1nc(-c2cc3ccccc3oc2=O)cs1,TGI,786-0 renal,> 100 µM
same,TGI,A549 NSCLC,> 100 µM
same,TGI,ACHN renal,> 100 µM
same,TGI,BT-549 breast,66.8 µM
same,TGI,CAKI-1 renal,> 100 µM
same,TGI,CCRF-CEM leukemia,> 100 µM
same,TGI,COLO 205 colon,> 100 µM
same,TGI,DU-145 prostate,> 100 µM
same,TGI,EKVX NSCLC,> 100 µM
same,TGI,HCC-2998 colon,> 100 µM
same,TGI,HCT-116 colon,> 100 µM
same,TGI,HCT-15 colon,> 100 µM
same,TGI,HL-60(TB) leukemia,> 100 µM
same,TGI,HOP-62 NSCLC,> 100 µM
same,TGI,HOP-92 NSCLC,> 100 µM
same,TGI,HS 578T breast,> 100 µM
same,TGI,HT29 colon,> 100 µM
same,TGI,IGROV1 ovarian,> 100 µM
same,TGI,K-562 leukemia,> 100 µM
same,TGI,KM12 colon,> 100 µM
same,TGI,LOX IMVI melanoma,> 100 µM
same,TGI,M14 melanoma,> 100 µM
same,TGI,MALME-3M melanoma,> 100 µM
same,TGI,MCF7 breast,> 100 µM
same,TGI,MDA-MB-231 breast,> 100 µM
same,TGI,MDA-MB-435,> 100 µM
same,TGI,MDA-N,> 100 µM
same,TGI,MOLT-4 leukemia,63.1 µM
same,TGI,NCI-H226 lung,> 100 µM
same,TGI,NCI-H460 lung,> 100 µM
same,TGI,NCI-H522 lung,> 100 µM
same,TGI,NCI/ADR-RES ovarian,> 100 µM
same,TGI,OVCAR-4 ovarian,> 100 µM
same,TGI,OVCAR-5 ovarian,> 100 µM
same,TGI,OVCAR-8 ovarian,> 100 µM
same,TGI,PC-3 prostate,> 100 µM
same,TGI,RPMI-8226 leukemia,> 100 µM
same,TGI,RXF 393 renal,> 100 µM
same,TGI,SF-268 CNS,> 100 µM
same,TGI,SF-295 CNS,> 100 µM
same,TGI,SF-539 CNS,> 100 µM
same,TGI,SK-MEL-2 melanoma,80.2 µM
same,TGI,SK-MEL-28 melanoma,> 100 µM
same,TGI,SK-MEL-5 melanoma,64 µM
same,TGI,SK-OV-3 ovarian,> 100 µM
same,TGI,SN12C renal,> 100 µM
same,TGI,SNB-19 CNS,> 100 µM
same,TGI,SNB-75 CNS,99.7 µM
same,TGI,SR leukemia,> 100 µM
same,TGI,SW-620 colon,> 100 µM
same,TGI,T-47D breast,> 100 µM
same,TGI,TK-10 renal,> 100 µM
same,TGI,U251 CNS,> 100 µM
same,TGI,UACC-257 melanoma,> 100 µM
same,TGI,UACC-62 melanoma,45.6 µM
same,TGI,UO-31 renal,> 100 µM
